Measured values: US20090232909A1, “Method for determining physiological effects of hemoglobin” (priority 1999, published 2009)

What was measured:
[1] = biological target: Hb (Homo sapiens, UniProt P68871+P69905); test: metHb production by UV-visible difference spectroscopy after NO addition to variously oxygenated Hb; assay type: biochemical; design: purchased Apex Bioscience (Research Triangle Park, N.C.); details: 10 mM phosphate
Protocol: (§1) Nitroso/nitrosyl derivatives of Hb were measured using a photolysis-chemiluminescence technique [6-fold excess HgCl2 over protein was added to displace S-nitrosothiol (SNO) (Stamler, J. S., et al., Science, 276:2034-2037, 1997)]. Samples were kept on ice for a period of 5 minutes to 2 hours before analyses. MetHb was monitored by UV-visible spectroscopy as the difference absorption above the linear baseline (600-700 nm), and EPR (below).
The samples used in FIGS. 1A-1D were assayed for metHb production by UV-visible difference spectroscopy. The data are normalized to added [NO]. As in FIGS. 1A-1D: open diamonds, 10 mM phosphate; open circles, 10 mM phosphate plus borate; open squares, 10 mM phosphate plus SOD; filled circles and filled squares, 100 mM phosphate. The dotted (10 mM phosphate) and dashed (100 mM phosphate) lines are calculated by using Eq. 5 and Fe(II)NO yields in FIGS. 1C and 1D, respectively. […] Systematic deviations are most pronounced in low phosphate at high oxygen saturation—i.e., under physiological conditions.

[2] = biological target: T1, oxyHb (Homo sapiens, UniProt P68871+P69905); test: Nitrosyl content of normoxic oxyHb after exposure to NO, photolysis-chemiluminescence; assay type: biochemical
T1 construct: purchased Apex Bioscience (Research Triangle Park, N.C.)
Protocol: as §1
(A) Nitrosyl content of oxyHb (10 mM phosphate 100 μM DTPA, pH 7.4) after exposure to 1.2 μM NO, as measured by photolysis-chemiluminescence (Stamler, J. S., et al., Science, 276:2034-2037, 1997). Nitrosyl yield increases as a function of Hb concentration (P<0.05). Solid symbols, absolute yield of NO bound to Hb (FeNO plus SNO); open symbols, percentage of NO added. Data shown are the average of 7 to 19 experiments±SE. (B) Standard difference spectra of metHb (solid line), deoxyHb (dotted line), and iron nitrosylHb (dashed line) vs. oxyHb. (C) Difference spectra generated from the exposure of NO to normoxic (≈99% oxygen saturation) Hb. NO was added (in 10 aliquots totaling 2.2 μM) to 33 μM Hb in 100 mM phosphate (solid line) or 10 mM phosphate (dotted line) or 10 mM phosphate plus 0.05% borate (dashed line). […] Specifically, spectra in C were fitted, by a least-squares process, to either the simple competition model or the cooperativity model without a mass balance constraint. Cooperativity is present if add increases above that reported in the literature, as a function of oxygen tension.
(A) SOD increases the yield of NO bound to Hb. The experiments in FIG. 3A were repeated in the absence (solid line; 1.2 μM NO) or presence (dashed line; 1.5 μM NO) of 1, 190 units/ml of SOD, which enhances the yield of nitrosyl species to approximately 100% of the NO added. Similar nitrosyl yields were obtained by using stroma-free Hb (25 μM), which is enriched in endogenous SOD (open circle). Data shown are the average of five to nine experiments±SE. (B) EPR spectrum of a DNIC formed by exposure of oxyHb (≈99% sat; 3.93 mM) to NO (36 μM). (C)S-nitrosoHb and iron nitrosylHb formed by exposure of oxyHb (=99% sat., 48 μM) to NO (1.2 μM). SNO (hatched bar) and FeNO (solid bar) were measured by photolysis-chemiluminescence (Stamler, J. S., et al., Science, 276:2034-2037, 1997). Data shown are the average of 12 experiments±SE. (D) Measurement of intraerythrocytic S-nitrosoHb and iron nitrosylHb formed by exposure of oxygenated RBCs (mean [Hb], 25 μM) to 0.3 μM NO. Isolation of Hb and measurements were as previously described (Stamler, J. S., et al., Science, 276:2034-2037, 1997). Data are the mean of 12 experiments±SE.

[3] = system: IOVs; test: Binding of SNO-Hb to IOVs from native or DIDS-treated RBCs; details: 10 mM MOPS, pH 7, 21% O2
Protocol: Immunoprecipitation was carried out by incubation of TX-100 or NP-40 extracts with antibodies followed by protein G-Sepharose. We employed two monoclonal anti-AE1 antibodies (Sigma, clone BIII-136, and kindly provided by M. Telen) that recognized epitopes in the cytoplasmic domain and that produced indistinguishable results. Immune complexes were eluted with 10 mM glycine at pH 3.0, and eluates were adjusted immediately to pH 7.4 followed by photolysis/chemiluminescence. Efficiency of immunoprecipitation was confirmed by Western blotting. Binding of SNO-Hb to IOVs was assessed in 10 mM MOPS buffer, pH 7, at room temperature and 21% O2. Incubation was for 15 mins before IOVs were solubilized in 1% TX-100, and heme content was assessed spectrophotometrically. When employed, RBCs were treated for 60 mins with DIDS (0.1 mM; calculated 10-fold molar excess over AE1), then washed thoroughly to remove unreacted DIDS. RBCs were then exposed to NO (as above) or used to prepare DIDS-modified IOVs (as above).

Row | Compound | shortfall in the Fe(III) and Fe(II)NO products [1] | nitrosyl yield ([2]; 1.2 μM NO added to 48 μM oxyHb) | share of nitrosyl yield that is SNO ([2]; 1.2 μM NO added to 48 μM oxyHb) | nitrosyl yield relative to the [Hb] ([2]; 1.2 μM NO, ≈99% O2 saturation, 10 mM phosphate) [%] | maximum yield of nitrosyl species ([2]; 1.2 μM NO, ≈99% O2 saturation, 10 mM phosphate, increasing [Hb]) | nitrosyl yields under normoxic conditions ([2]; heme vacancies only ≈1%) | SNO-Hb binding to IOVs from native vs DIDS-treated RBCs [3]
1 | [N]=O [NO, nitric oxide] | ≤ 20 % of added [NO]0 | approximately 500 nM | ≈ 80% | 3 to 0.6 | approximately 50 % of NO added | ≤ 6 % of Hb | 
2 | O=S(=O)(O)c1cc(N=C=S)ccc1C=Cc1ccc(N=C=S)cc1S(=O)(=O)O [DIDS, 4,4′-diisothiocyanatostilbene-2,2′-disulfonic acid] |  |  |  |  |  |  | equal affinity
